Source: patent US20230200391A1, “ACTIVE COMPOUND COMBINATIONS AND FUNGICIDE COMPOSITIONS COMPRISING THOSE” (priority 2020, published 2023)
Several values for one entry are separate records, joined by “and”; a condition that tells them apart may be missing. Equal entries are not always repeated.

Key:
Format in all cases: cell-based
[1] = tested on: Parastagonospora nodorum; assay: in vitro-Test with Parastagonospora nodorum
Experimental: (§1) Wells of 96-well microtiter plates are filled with 30 μl of a preparation of test compound or compound combination in methanol+emulsifier alkylaryl-polyglycol-ether. Thereafter, the solvent is evaporated in a hood. At the next step, into each well 200 μl of liquid growth medium is given, that has been amended with an appropriate concentration of spores or mycelium suspension of the test fungus.
(§2) With the aid of a photometer the extinction in all wells is measured at the wavelength of 600 nm.
(§3) The microtiter plates are incubated for 3 to 7 days at 20° C. and 85% relative humidity. After the incubation inhibition of growth is determined photometrically. Efficacy is calculated in relation to the untreated control, 0% efficacy means fungal growth as high as in untreated control while 100% efficacy means no fungal growth is measured.

[2] = tested on: Botrytis cinerea; assay: in vitro-Test with Botrytis cinerea
Experimental: as §1, §2, §3

[3] = tested on: Cercospora beticola; assay: in vitro-Test with Cercospora beticola
Experimental: as §1, §2, §3

[4] = tested on: Ustilago segetum var. avenae; assay: in vitro-Test with Ustilago segetum var. avenae
Experimental: as §1, §2, §3

[5] = tested on: Cordana musae; assay: in vitro-Test with Cordana musae
Experimental: as §1, §2, §3

[6] = tested on: Fusarium culmorum; assay: in vitro-Test with Fusarium culmorum
Experimental: as §1, §2, §3

[7] = tested on: Colletotrichum coccodes; assay: in vitro-Test with Colletotrichum coccodes
Experimental: as §1, §2, §3

[8] = tested on: Diaporthe citri; assay: in vitro-Test with Diaporthe citri
Experimental: as §1, §2, §3

[9] = tested on: Alternaria alternata; assay: in vitro-Test with Alternaria alternata
Experimental: as §1, §2, §3

`COC(=O)C(O)(Cn1cncn1)c1ccc(Oc2ccc(Cl)cc2)cc1Cl` (stereo not drawn) [(I-1), Methyl 2-[2-chloro-4-(4-chlorophenoxy)phenyl]-2-hydroxy-3-(1,2,4-triazol-1-yl)propanoate] gave an efficacy % ([1]; 0.1 ppm) of 87%, an efficacy % ([1]; 0.5 ppm) of 98% and an efficacy % ([1]; 2.5 ppm) of 96%. For the same compound, the efficacy % ([1]; single compound at 0.02 ppm) was 0%, the efficacy % ([2]; 0.02 ppm) was 3% and the efficacy % ([2]; 0.2 ppm) was 0%. It also gave an efficacy % ([2]; 0.5 ppm) of 27%, an efficacy % ([3]; 0.5 ppm) of 100% and an efficacy % ([3]; 2.5 ppm) of 100%. It also gave an efficacy % ([4]; 0.02 ppm) of 9%, an efficacy % ([4]; 0.5 ppm) of 96% and an efficacy % ([4]; 2.5 ppm) of 98%. The efficacy % ([5]; 0.02 ppm) was 0%, the efficacy % ([5]; 0.1 ppm) was 5% and the efficacy % ([5]; 0.5 ppm) was 15%. The efficacy % ([5]; 2.5 ppm) was 99%, the efficacy % ([6]; 0.02 ppm) was 14% and 10% and 4% and the efficacy % ([6]; 0.5 ppm) was 0%. The efficacy % ([7]; 0.1 ppm) was 0%, the efficacy % ([7]; 0.5 ppm) was 32% and the efficacy % ([8]; 0.1 ppm) was 0%. It also gave an efficacy % ([8]; 0.5 ppm) of 96%.

For `OC(Cc1ccccc1Cl)(Cn1nc[nH]c1=S)C1(Cl)CC1` (stereo not drawn) [(1.018), prothioconazole], the efficacy % ([1]; 0.02 ppm) was 83%, the efficacy % ([1]; 0.1 ppm) was 97% and the efficacy % ([1]; 0.5 ppm) was 97%. For the same compound, the efficacy % ([1]; single compound at 0.004 ppm) was 2%, the efficacy % ([9]; 0.004 ppm) was 26% and the efficacy % ([9]; 0.02 ppm) was 13%. The efficacy % ([9]; 0.1 ppm) was 37%, the efficacy % ([3]; 0.1 ppm) was 100% and the efficacy % ([3]; 0.5 ppm) was 96%. For the same compound, the efficacy % ([4]; 0.004 ppm) was 45%, the efficacy % ([4]; 0.1 ppm) was 99% and the efficacy % ([4]; 0.5 ppm) was 99%. The efficacy % ([5]; 0.004 ppm) was 3% and 0% and 2%, the efficacy % ([5]; 0.5 ppm) was 99% and the efficacy % ([6]; 0.004 ppm) was 3%. It also gave an efficacy % ([6]; 0.02 ppm) of 0%, an efficacy % ([7]; 0.004 ppm) of 0% and an efficacy % ([8]; 0.004 ppm) of 14%. For the same compound, the efficacy % ([8]; 0.1 ppm) was 98% and the efficacy % ([8]; 0.5 ppm) was 99%.

`CO/N=C(/C1=NOCCO1)c1ccccc1Oc1ncnc(Oc2ccccc2Cl)c1F` [(3.012), fluoxastrobin] gave an efficacy % ([9]; 0.4 ppm) of 87%, an efficacy % ([5]; 2 ppm) of 74% and an efficacy % ([5]; 10 ppm) of 81%. The efficacy % ([6]; 0.4 ppm) was 26%, the efficacy % ([6]; 2 ppm) was 34% and the efficacy % ([6]; 10 ppm) was 47% and 54%. The efficacy % ([7]; 2 ppm) was 85%.

mancozeb [(5.013)] was tested, and the efficacy % ([1]; single compound at 0.16 ppm) was 0%, the efficacy % ([2]; 0.16 ppm) was 4% and the efficacy % ([2]; 0.8 ppm) was 6%. For the same compound, the efficacy % ([2]; 4 ppm) was 6%, the efficacy % ([9]; 0.16 ppm) was 0% and the efficacy % ([9]; 0.8 ppm) was 0% and 1%. For the same compound, the efficacy % ([9]; 20 ppm) was 74%, the efficacy % ([3]; 20 ppm) was 98% and 100% and the efficacy % ([5]; 0.16 ppm) was 0%. It also gave an efficacy % ([5]; 0.8 ppm) of 0%, an efficacy % ([5]; 4 ppm) of 12% and an efficacy % ([6]; 0.16 ppm) of 0%. It also gave an efficacy % ([6]; 0.8 ppm) of 0%, an efficacy % ([6]; 4 ppm) of 0% and an efficacy % ([7]; 4 ppm) of 24%. The efficacy % ([8]; 0.8 ppm) was 0% and the efficacy % ([8]; 20 ppm) was 96%.

In the case of `Cc1nn(C)c(F)c1C(=O)Nc1ccccc1C(C)CC(C)C` (stereo not drawn) [(2.017), penflufen], the efficacy % ([1]; 0.2 ppm) is reported as 0%, the efficacy % ([1]; 5 ppm) is reported as 42% and the efficacy % ([1]; single compound at 0.04 ppm) is reported as 0%. For the same compound, the efficacy % ([1]; single compound at 0.2 ppm) was 4%, the efficacy % ([1]; single compound at 1 ppm) was 17% and the efficacy % ([1]; single compound at 5 ppm) was 48%. For the same compound, the efficacy % ([9]; 0.04 ppm) was 10% and the efficacy % ([9]; 1 ppm) was 65%.

Compound `Cc1cccc(-n2nnn(C)c2=O)c1COc1ccn(-c2ccc(Cl)cc2)n1` [(3.030), metyltetraprole] has an efficacy % ([2]; 0.008 ppm) of 11%, an efficacy % ([2]; 0.4 ppm) of 34% and an efficacy % ([2]; 2 ppm) of 41%. It also gave an efficacy % ([2]; 10 ppm) of 81%, an efficacy % ([4]; 10 ppm) of 34% and an efficacy % ([5]; 0.08 ppm) of 44%. It also gave an efficacy % ([5]; 0.4 ppm) of 70%, an efficacy % ([5]; 2 ppm) of 78% and an efficacy % ([7]; 0.08 ppm) of 25%. It also gave an efficacy % ([7]; 0.4 ppm) of 73%, an efficacy % ([7]; 10 ppm) of 100% and an efficacy % ([8]; 2 ppm) of 95%. It also gave an efficacy % ([8]; 10 ppm) of 99%.

`CC(C)c1ccc(Cl)cc1CN(C(=O)c1c(C(F)F)nn(C)c1F)C1CC1` [(2.038), isoflucypram] gave an efficacy % ([2]; 0.2 ppm) of 74%, an efficacy % ([2]; 1 ppm) of 86% and an efficacy % ([9]; 1 ppm) of 76%. For the same compound, the efficacy % ([3]; 0.04 ppm) was 0% and the efficacy % ([6]; 0.04 ppm) was 0%.

Work on `O=C(NCCc1ncc(C(F)(F)F)cc1Cl)c1ccccc1C(F)(F)F` [(2.005), fluopyram] yielded an efficacy % ([1]; 4 ppm) of 49%, an efficacy % ([1]; 20 ppm) of 86% and an efficacy % ([2]; 0.16 ppm) of 48%. For the same compound, the efficacy % ([2]; 0.8 ppm) was 77%, the efficacy % ([2]; 20 ppm) was 97% and the efficacy % ([9]; 0.16 ppm) was 67%. The efficacy % ([9]; 20 ppm) was 89%, the efficacy % ([3]; 0.16 ppm) was 25% and the efficacy % ([3]; 0.8 ppm) was 0%. It also gave an efficacy % ([3]; 4 ppm) of 11%.

For `CON=C(C(=O)OC)c1ccccc1CON=C(C)c1cccc(C(F)(F)F)c1` [(3.020), trifloxystrobin], the efficacy % ([1]; single compound at 0.008 ppm) was 32%, the efficacy % ([1]; single compound at 0.04 ppm) was 73% and the efficacy % ([1]; single compound at 1 ppm) was 97%. For the same compound, the efficacy % ([2]; 0.008 ppm) was 5%, the efficacy % ([2]; 0.04 ppm) was 17% and the efficacy % ([2]; 0.2 ppm) was 13%. It also gave an efficacy % ([9]; 0.008 ppm) of 22%, an efficacy % ([9]; 0.04 ppm) of 62% and an efficacy % ([6]; 0.008 ppm) of 0%. For the same compound, the efficacy % ([6]; 0.04 ppm) was 19% and the efficacy % ([7]; 0.008 ppm) was 7%.

`O=C(NC1CCC1c1ccc(Cl)cc1Cl)c1cccnc1C(F)(F)F` (stereo in doubt) [(2.060), cyclobutrifluram] showed an efficacy % ([1]; 5 ppm) of 0%, an efficacy % ([1]; single compound at 0.04 ppm) of 5% and an efficacy % ([1]; single compound at 0.2 ppm) of 13%. It also gave an efficacy % ([1]; single compound at 5 ppm) of 98%, an efficacy % ([2]; 0.04 ppm) of 49% and an efficacy % ([2]; 0.2 ppm) of 77%. The efficacy % ([2]; 1 ppm) was 92%, the efficacy % ([9]; 0.04 ppm) was 80% and the efficacy % ([9]; 5 ppm) was 88%. For the same compound, the efficacy % ([5]; 0.04 ppm) was 0%, the efficacy % ([5]; 0.2 ppm) was 0% and the efficacy % ([6]; 0.04 ppm) was 47%. It also gave an efficacy % ([6]; 5 ppm) of 56%, an efficacy % ([7]; 0.04 ppm) of 0% and an efficacy % ([7]; 0.2 ppm) of 0%. The efficacy % ([7]; 1 ppm) was 0% and the efficacy % ([7]; 5 ppm) was 12%.

With inpyrfluxam [(2.027)] the efficacy % ([5]; 1 ppm) was 3% and the efficacy % ([8]; 1 ppm) was 86% and 84%.
